EP1708692B1, “DICHLOROACETATE IN COMBINATION WITH AN INOTROPE FOR CARDIOPROTECTION” (The Governors of the University of Alberta, priority 2004, dated 2005)
Where “and” joins values, the source holds several entries; their conditions need not be identical. Equal values may be shown once. Read-outs that look alike come from different tables or passages of the source.

Assays:
[1] = Plasma DCA levels by HPLC after bolus, adult CABG patients (Example A); assay type: in vivo; details: human, 50 mg/kg, following infusion of 50mg/kg Na+ Dichloroacetate via cardiopulmonary bypass pump, 1 hour following administration, n=8
Method: (§1) DCA or saline was administered to 18 patients undergoing elective cardiac bypass grafting surgery (CABG) in a double blinded randomized manner DCA (50mg/kg in 100 ml of saline) or placebo was injected into the aortic root, immediately prior to removing aortic cross clamp. Based on the pharmacokinetics of DCA, we anticipated that this would produce a plasma concentration of approximately 1 mM. The study consisted of 8 DCA-treated patients and 10 placebo-treated patients.
(§2) The intervention involved DCA (50mg/kg) or placebo injected into the aortic root immediately prior to removing aortic cross clamp. The coded solution was made such that a dose of lml/kg provides the appropriate dose of DCA or placebo. Based on the pharmacokinetics of DCA, this was expected to result in a plasma level of DCA in the therapeutic range of (1mM). All blood samples were analyzed by HPLC for DCA concentration.
Plasma samples were processed for DCA levels using a high performance liquid chromatography (HPLC) technique that separated the DCA from other plasma constituents. In brief, 20 µl of plasma sample was injected into a Beckman Gold HPLC containing a IonoBpher 5A column (250x4.6mm LxID) and a AX Guard Column. […] The flow rate of the HPLC was set at 3.0 ml/min and the DCA eluted from the column was detected by comparing DCA elution times to acetate, monochloroacetate, and trichloroacetate standards. […]

[2] = test system: pediatric patients requiring heart surgery to connect complex congenital heart lesions; experiment: Clinical outcome after single DCA bolus: Inotrope Score, ICU time, ventilator time, echocardiography (Example B); assay type: in vivo; details: 50mg/kg bolus, placebo patients 26%
Method: This study was a randomized, placebo-controlled, double blinded, single surgeon, study of the use of DCA in 40 high-risk pediatric patients requiring heart surgery to connect complex congenital heart lesions.
In this trial, 40 children were recruited to participate in a single surgeon study, of which 18 received DCA and 22 received placebo. The 1995 power calculations were based on separation of the CPB-1 trial of n = 40 patients.
as §2, with “in” for “in a”, “levels” for “level”
In both the operating room at the end of cardiopulmonary bypass and in the intensive care unit, parenteral drugs were scored on an hourly basis with 1 point allotted for each level for each bolus or infusion given within the previous hour for the first 24 hours post-operatively. Thus, at the end of 24 hours high scores indicated poorer cardiac function.

patients = experiment: Observed side effects of DCA in patients
[3] = test system: pediatric patients requiring heart surgery to correct complex congenital heart lesions; experiment: Clinical outcome after DCA bolus and 24 hour infusion: Inotrope Score, ICU time, ventilator time (Example C); assay type: in vivo; parameters: reduction of Inotrope Scores: concentration or dose not given beside the values; details: compared to placebo; for average decrease in Inotrope Score per patient: over the 24 hour period
Method: This study was a randomized, placebo-controlled, double blinded, single surgeon, study of the use of DCA in 51 high-risk pediatric patients requiring heart surgery to correct complex congenital heart lesions.
In this trial, 53 infants were recruited to participate in a study, of which 51 patients met inclusion criteria after parental consent. Two dosing groups resulted from the study team changing the dosing protocol after the data from the initial 10 patients were analyzed. The data from patients number 1 to number 10 was analyzed for DCA therapeutic blood levels and therapeutic effect. A recommendation by the research team was made to increase the bolus dose of DCA and to decrease the infusion dose of DCA to maintain a DCA dose range of 1mM for 24 hours. The intent was to administer the new protocol at patient number 20. The 1997 Epicore power calculations were based on separation of the study groups patients into group A of n = 20 patients and Group B of n = 31 patients
(§3) DCA (50mg/kg) or placebo was injected into the aortic root immediately prior to removing aortic cross clamp. The coded solutions were made such that a dose of 1 ml/kg provided either a DCA therapeutic level of 1mM plasma concentration of DCA, or a placebo solution. Immediately thereafter, an infusion of DCA at 25mg/kg/hr or placebo in the same volume was initiated and run for 24 hours. Based on the pharmacokinetics of DCA, this was expected to maintain plasma levels of DCA in the therapeutic range of (0.2-1mM). However, the plasma concentrations of DCA were below 1mM after the first hour interval, and that the 24 hour plasma concentrations were elevated above 1mM DCA levels at the 24 hour interval, a decision was made to modify the dosing protocol. This change in dosing protocol was approved by the Ethics Committee, but not implemented until patient number 24. All blood samples were analyzed by HPLC for DCA concentration.
(§4) DCA (100mg/kg) or placebo was injected into the aortic root immediately prior to removing aortic cross clamp. The coded solutions were made such that a dose of 1 ml/kg provided either a DCA therapeutic level of 1mM plasma concentration of DCA, or a placebo solution. Immediately thereafter, an infusion of DCA at 12.5mg/kg/hr or placebo in the same volume was initiated and run for 24 hours. Based on the pharmacokinetics of DCA, this was expected to maintain plasma levels of DCA in the therapeutic range of (0.2-1mM). All blood samples were analyzed by HPLC for DCA concentration.
In both the operating room at the end of cardiopulmonary bypass and in the intensive care unit, parenteral drugs were scored on an hourly basis with 1 point allotted for each level for each bolus or infusion given within the previous hour within the first 24 hours post-operatively. Thus at the end of 24 hours, high scores indicated poorer cardiac function.

[4] = test system: patients undergoing elective cardiac bypass grafting surgery (CABG); experiment: Mortality in adult CABG study (Example A); assay type: in vivo, human; details: 50mg/kg bolus, 8 DCA-treated adult patients
Method: as §1, §2

[5] = Plasma DCA levels by HPLC, bolus and infusion protocol (Example C); assay type: in vivo, pediatric patients; details: human
Method: as §3, §4
Arterial blood samples were obtained from patients at the following times: • a. Immediately after the insertion of arterial line in operating room (i.e., at beginning of surgery). • b. Thirty minutes after the bolus of DCA has been given, whether or not cardiopulmonary bypass has been discontinued. • c. One hour after discontinuing cardiopulmonary bypass. • d. Six hours after discontinuing cardiopulmonary bypass • e. Twelve hours after discontinuing cardiopulmonary bypass. • f. Twenty four hours after discontinuing cardiopulmonary bypass. At the end of 24 hours, the DCA or placebo infusion was discontinued.
Blood samples were collected from indwelling arterial lines into citrate-containing tubes (0.5 ml blood samples). The samples were spun in the microfuge, the plasma separated, and frozen immediately for later analysis. All plasma samples were stored at -80 degrees centigrade, until further processing. Plasma glucose and lactate were determined using a Sigma glucose kit and a spectrophotometric assay involving lactate dehydrogenase respectively. Plasma fatty acid levels were measured using an ELISA system and WAKO free fatty acid kit.

[6] = Group A, 50mg/kg bolus and 25mg/kg/hour infusion
[7] = Group B, 100mg/kg bolus and 12.5mg/kg/hour infusion

O=C(O)C(Cl)Cl [DCA, dichloroacetate]
concentration at 1 h [1]: ~1000 µM
shortening fraction (echocardiography) [2]: 35%
side-effects (patients; general observation in patients): not have significant side-effects, although some patients experience mild drowsiness
adverse effects of DCA (patients; previous (pilot) studies): no adverse effects
reduction of time in ICU ([3]; Group A, 50mg/kg bolus and 25mg/kg/hour infusion, 23 patients): 60 h
decrease of time in ICU [3, 6]: 41%
decrease of ventilator time [3, 6]: 47%
reduction of ventilator time [3, 6]: 46 h
reduction of Inotrope Scores ([3]; Group A, by 1 hour): 50%
reduction of Inotrope Scores ([3]; Group A, by 12 hours): 45%
reduction of Inotrope Scores ([3]; Group A, by 24 hours): 38%
average decrease in Inotrope Score per patient ([3]; Group A): 44%
reduction of time in ICU ([3]; Group B, 100mg/kg bolus and 12.5mg/kg/hour infusion, 24 patients): 50 h
decrease of time in ICU [3, 7]: 40%
decrease of ventilator time [3, 7]: 23%
reduction of ventilator time [3, 7]: 18 h and 19 h
reduction of Inotrope Scores ([3]; Group B, by 1 hour): 57%
reduction of Inotrope Scores ([3]; Group B, by 12 hours): 49%
reduction of Inotrope Scores ([3]; Group B, by 24 hours): 45%
average decrease in Inotrope Score per patient ([3]; Group B): 51%
mortalities [4]: no mortalities
concentration at 24 h ([5]; 50 mg/kg, Example C, 24 hour interval (Group A), read-out: optimum mean level of DCA in plasma): 2.29 mM
concentration at 24 h ([5]; 50 mg/kg, Group A protocol (50mg/kg bolus, 25mg/kg/hr infusion), 24 hour interval, initial patients, read-out: plasma concentrations of DCA): > 1 mM
concentration at 1 h ([5]; 50 mg/kg, Group A protocol (50mg/kg bolus, 25mg/kg/hr infusion), after the first hour interval, initial patients, read-out: plasma concentrations of DCA): < 1 mM
concentration at 12 h ([5]; 50 mg/kg, Group A, 50mg/kg bolus and 25mg/kg/hr infusion, n=9, read-out: Average DCA Plasma Levels, mM at 12 hr): 1.77 mM
concentration at 6 h ([5]; 50 mg/kg, Group A, 50mg/kg bolus and 25mg/kg/hr infusion, n=10, read-out: Average DCA Plasma Levels, mM at 6 hr): 1.13 mM
concentration at 1 h ([5]; 50 mg/kg, Group A, 50mg/kg bolus and 25mg/kg/hr infusion, n=11, read-out: Average DCA Plasma Levels, mM at 1 hr): 0.46 mM
concentration at 24 h ([5]; 50 mg/kg, Group A, 50mg/kg bolus and 25mg/kg/hr infusion, n=11, read-out: Average DCA Plasma Levels, mM at 24 hr): 2.72 mM
concentration at 6 h ([5]; 50 mg/kg, Group A, 50mg/kg bolus and 25mg/kg/hr infusion, patients with greatest degree of clinical benefits, m=5, read-out: Average Optimum Mean of DCA Plasma Levels, mM at 6 hr): 0.916 mM
concentration at 12 h ([5]; 50 mg/kg, Group A, 50mg/kg bolus and 25mg/kg/hr infusion, patients with greatest degree of clinical benefits, m=5, read-out: Average Optimum Mean of DCA Plasma Levels, mM at 12 hr): 1.52 mM
concentration at 24 h ([5]; 50 mg/kg, Group A, 50mg/kg bolus and 25mg/kg/hr infusion, patients with greatest degree of clinical benefits, m=6, read-out: Average Optimum Mean of DCA Plasma Levels, mM at 24 hr): 2.29 mM
concentration at 6 h ([5]; 100 mg/kg, Example C, 1 to 6 hour period (Group B), read-out: optimum mean level of DCA in plasma): 1 mM
concentration at 6 h ([5]; 100 mg/kg, Group B, 100mg/kg bolus and 12.5 mg/kg/hr infusion, n not given, read-out: Average Optimum Mean of DCA Plasma Levels, mM at 6 hr): 1 mM
concentration at 12 h ([5]; 100 mg/kg, Group B, 100mg/kg bolus and 12.5 mg/kg/hr infusion, n not given, read-out: Average Optimum Mean of DCA Plasma Levels, mM at 12 hr): 1 mM
concentration at 24 h ([5]; 100 mg/kg, Group B, 100mg/kg bolus and 12.5 mg/kg/hr infusion, n not given, read-out: Average Optimum Mean of DCA Plasma Levels, mM at 24 hr): 1 mM
concentration at 24 h ([5]; 100 mg/kg, Group B, 100mg/kg bolus and 12.5 mg/kg/hr infusion, n=10, read-out: Average DCA Plasma Levels, mM at 24 hr): 2.23 mM
concentration at 1 h ([5]; 100 mg/kg, Group B, 100mg/kg bolus and 12.5 mg/kg/hr infusion, n=11, read-out: Average DCA Plasma Levels, mM at 1 hr): 1.13 mM
concentration at 6 h ([5]; 100 mg/kg, Group B, 100mg/kg bolus and 12.5 mg/kg/hr infusion, n=11, read-out: Average DCA Plasma Levels, mM at 6 hr): 0.894 mM
concentration at 12 h ([5]; 100 mg/kg, Group B, 100mg/kg bolus and 12.5 mg/kg/hr infusion, n=11, read-out: Average DCA Plasma Levels, mM at 12 hr): 1.43 mM
concentration at 6 h ([5]; Example C, 1 to 6 hour interval, read-out: DCA plasma level range): 0.229 to 2.22 mM
concentration at 12 h ([5]; Example C, 12 hour interval, read-out: DCA plasma level range): 0.38 to 3.07 mM
concentration at 12 h ([5]; Example C, 12 hour interval, read-out: optimum mean level of DCA in plasma): 1.52 mM
concentration at 24 h ([5]; Example C, 24 hour interval, read-out: DCA plasma level range): 1.74 to 3.9 mM
concentration at 1 h ([5]; Group A, 50mg/kg bolus and 25mg/kg/hr infusion, patients with greatest degree of clinical benefits, n not given, read-out: Average Optimum Mean of DCA Plasma Levels, mM at 1 hr): 1 mM
concentration at 1 h ([5]; Group B, 100mg/kg bolus and 12.5 mg/kg/hr infusion, patients with greatest degree of clinical benefits, n=7, read-out: Average Optimum Mean of DCA Plasma Levels, mM at 1 hr): 1.01 mM
